ChEMBL document CHEMBL4229539, “Characterization of crystal water molecules in a high-affinity inhibitor and hematopoietic prostaglandin D synthase complex by interaction energy studies” (Bioorg Med Chem, 2018)

Target: Hematopoietic prostaglandin D synthase (Homo sapiens, UniProt O60760)
Assay: Binding affinity to full length recombinant human N-terminal His6-tagged H-PGDS expressed in Escherichia coli BL21(DE3) by SPR analysis

Hematopoietic prostaglandin D synthase, sequence (O60760 whole entry): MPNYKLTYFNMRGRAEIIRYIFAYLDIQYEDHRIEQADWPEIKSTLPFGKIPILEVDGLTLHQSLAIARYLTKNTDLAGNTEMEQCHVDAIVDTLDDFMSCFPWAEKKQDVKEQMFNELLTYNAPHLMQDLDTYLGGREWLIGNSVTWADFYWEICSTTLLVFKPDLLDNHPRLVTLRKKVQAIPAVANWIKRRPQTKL

Molecule `O=C(Nc1ccc(N2CCC(C(=O)N3CCOCC3)CC2)cc1)c1cnc(Oc2ccccc2)nc1` has a Kd of 0.37 nM.

`O=C(Nc1ccc(N2CCCC2=O)cc1)c1cnc(-c2ccccn2)nc1` gave a Kd of 0.14 nM.
